In PubChem BioAssay AID1963968 (Molecular Pharmacology Branch, DTP, NCI, 2024):
pIC50: −log10 of the molar value.

Tested on: 945468-187-T-J3-PDC spheroids with HUVEC/MSC, viability
Experiment: Anticancer human tumor 945468-187-T-J3-PDC patient-derived rectal carcinoma cell line growth inhibition [PI3K]
Conditions: for pIC50: curve of first compound; for viability, T/C: stronger effect = lower value; active = viability on the fitted dose curve at most 10% of control; inactive = the rest
How it was run: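 Combination activity was assessed by viability in multicellular tumor spheroids carrying HUVEC and MSC components. Agents were tested with PI3K inhibitors from a Cmax-based top dose (or 10 microM) downward in half-log increments.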

[1] = second compound 0.00316 µM, first compound 0.0316 µM
[2] = second compound 0.00316 µM, first compound 0.1 µM
[3] = second compound 0.01 µM, first compound 0.0316 µM
[4] = second compound 0.01 µM, first compound 0.1 µM
[5] = second compound 0.0316 µM, first compound 0.0316 µM
[6] = second compound 0.0316 µM, first compound 0.1 µM
[7] = second compound 0.1 µM, first compound 0.0316 µM
[8] = second compound 0.1 µM, first compound 0.1 µM
[9] = second compound 0.316 µM, first compound 0.0316 µM
[10] = second compound 0.316 µM, first compound 0.1 µM
[11] = second compound 1 µM, first compound 0.0316 µM
[12] = second compound 1 µM, first compound 0.1 µM
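Also: spheroids exposed to agents for 7 days before viability read.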
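For viability, T/C in this document: 100% = DMSO vehicle control viability.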

C[C@@H](NC(=O)c1ncnc(N)c1Cl)c1ncc(C(=O)Nc2cc(C(F)(F)F)c(Cl)cn2)s1 + COc1c(OCCCN2CCOCC2)ccc2c3n(c(=NC(=O)c4cnc(N)nc4)nc12)CCN3
inactive: viability, T/C [1] 89.2% | viability, T/C [2] 101% | viability, T/C (second compound 0.00316 µM, first compound 0.316 µM) 97.1% | viability, T/C (second compound 0.00316 µM, first compound 1 µM) 104% | viability, T/C (second compound 0.00316 µM, first compound 3.16 µM) 98.4% | viability, T/C (second compound 0.00316 µM, first compound 10 µM) 95.9% | viability, T/C [3] 118% | viability, T/C [4] 91.7% | viability, T/C (second compound 0.01 µM, first compound 0.316 µM) 101% | viability, T/C (second compound 0.01 µM, first compound 1 µM) 99.3% | viability, T/C (second compound 0.01 µM, first compound 3.16 µM) 94.6% | viability, T/C (second compound 0.01 µM, first compound 10 µM) 90.3% | viability, T/C [5] 94.5% | viability, T/C [6] 101% | viability, T/C (second compound 0.0316 µM, first compound 0.316 µM) 83.8% | viability, T/C (second compound 0.0316 µM, first compound 1 µM) 95% | viability, T/C (second compound 0.0316 µM, first compound 3.16 µM) 92% | viability, T/C (second compound 0.0316 µM, first compound 10 µM) 102% | viability, T/C [7] 34.8% | viability, T/C [8] 42.1% | viability, T/C (second compound 0.1 µM, first compound 0.316 µM) 39% | viability, T/C (second compound 0.1 µM, first compound 1 µM) 45.5% | viability, T/C (second compound 0.1 µM, first compound 3.16 µM) 45.6% | viability, T/C (second compound 0.1 µM, first compound 10 µM) 51.8% | viability, T/C [9] 19.7% | viability, T/C [10] 22.8% | viability, T/C (second compound 0.316 µM, first compound 0.316 µM) 19.8% | viability, T/C (second compound 0.316 µM, first compound 1 µM) 18.2% | viability, T/C (second compound 0.316 µM, first compound 3.16 µM) 20.8% | viability, T/C (second compound 0.316 µM, first compound 10 µM) 21.4% | viability, T/C [11] 17.3% | viability, T/C [12] 17.7% | viability, T/C (second compound 1 µM, first compound 0.316 µM) 17.4% | viability, T/C (second compound 1 µM, first compound 1 µM) 16.1% | viability, T/C (second compound 1 µM, first compound 3.16 µM) 19% | viability, T/C (second compound 1 µM, first compound 10 µM) 19.9%
> 7.50: pIC50 (second compound 0.1 µM) | pIC50 (second compound 0.316 µM) | pIC50 (second compound 1 µM)
< 5.00: pIC50 (second compound 0.00316 µM) | pIC50 (second compound 0.01 µM) | pIC50 (second compound 0.0316 µM)

Cn1ncnc1[C@H]1c2n[nH]c(=O)c3cc(F)cc(c23)N[C@@H]1c1ccc(F)cc1 + COc1c(OCCCN2CCOCC2)ccc2c3n(c(=NC(=O)c4cnc(N)nc4)nc12)CCN3
inactive: viability, T/C (second compound 0.00316 µM, first compound 0.000316 µM) 101% | viability, T/C (second compound 0.00316 µM, first compound 0.001 µM) 90.1% | viability, T/C (second compound 0.00316 µM, first compound 0.00316 µM) 88.8% | viability, T/C (second compound 0.00316 µM, first compound 0.01 µM) 92.6% | viability, T/C [1] 117% | viability, T/C [2] 92.8% | viability, T/C (second compound 0.01 µM, first compound 0.000316 µM) 99.3% | viability, T/C (second compound 0.01 µM, first compound 0.001 µM) 91.4% | viability, T/C (second compound 0.01 µM, first compound 0.00316 µM) 97.7% | viability, T/C (second compound 0.01 µM, first compound 0.01 µM) 92.5% | viability, T/C [3] 101% | viability, T/C [4] 95.4% | viability, T/C (second compound 0.0316 µM, first compound 0.000316 µM) 98.8% | viability, T/C (second compound 0.0316 µM, first compound 0.001 µM) 93.9% | viability, T/C (second compound 0.0316 µM, first compound 0.00316 µM) 84.2% | viability, T/C (second compound 0.0316 µM, first compound 0.01 µM) 86% | viability, T/C [5] 89.2% | viability, T/C [6] 97.6% | viability, T/C (second compound 0.1 µM, first compound 0.000316 µM) 46.5% | viability, T/C (second compound 0.1 µM, first compound 0.001 µM) 55.3% | viability, T/C (second compound 0.1 µM, first compound 0.00316 µM) 40.8% | viability, T/C (second compound 0.1 µM, first compound 0.01 µM) 49.5% | viability, T/C [7] 42% | viability, T/C [8] 38.8% | viability, T/C (second compound 0.316 µM, first compound 0.000316 µM) 20.3% | viability, T/C (second compound 0.316 µM, first compound 0.001 µM) 21.3% | viability, T/C (second compound 0.316 µM, first compound 0.00316 µM) 19.4% | viability, T/C (second compound 0.316 µM, first compound 0.01 µM) 22.2% | viability, T/C [9] 21.2% | viability, T/C [10] 18.5% | viability, T/C (second compound 1 µM, first compound 0.000316 µM) 14.1% | viability, T/C (second compound 1 µM, first compound 0.001 µM) 15.5% | viability, T/C (second compound 1 µM, first compound 0.00316 µM) 15.3% | viability, T/C (second compound 1 µM, first compound 0.01 µM) 15.7% | viability, T/C [11] 14.8% | viability, T/C [12] 12.6%
< 7.00: pIC50 (second compound 0.00316 µM) | pIC50 (second compound 0.01 µM) | pIC50 (second compound 0.0316 µM)
> 9.50: pIC50 (second compound 0.1 µM) | pIC50 (second compound 0.316 µM) | pIC50 (second compound 1 µM)
